Experimental data: the NIST ThermoML archive (doi:10.1016/j.jct.2006.08.009)

Experiment: mn = molality of the nth substance listed, in mol/kg
Details: 350 kPa, Liquid; for apparent molar heat capacity: Extra sensitive DSC

OC[C@@H](O)[C@@H](O)[C@@H](O)CO [SRS-1,2,3,4,5-pentanepentol] + O
Details	apparent molar heat capacity [J/K/mol]	mass density [kg/m3]
278.15 K, m1 = 0.0196	335	1001.15
278.15 K, m1 = 0.0506	329.5	1002.66
278.15 K, m1 = 0.1042	335.2	1005.31
278.15 K, m1 = 0.2591	334.4	1012.83
278.15 K, m1 = 0.5092	334.9	1024.77
278.15 K, m1 = 0.9969	336.5	1046.03
278.15 K, m1 = 1.998	336.2	1084.53
278.15 K, m1 = 3.177	339.7	1119.46
283.15 K, m1 = 0.0196	354	1000.8
283.15 K, m1 = 0.0506	343	1002.31
283.15 K, m1 = 0.1042	350.4	1004.94
283.15 K, m1 = 0.2591	349.6	1012.39
283.15 K, m1 = 0.5092	349.7	1024.17
283.15 K, m1 = 0.9969	350.6	1045.12
283.15 K, m1 = 1.998	349.4	1083.19
283.15 K, m1 = 3.177	351.5	1117.64
288.15 K, m1 = 0.0196	368	1000.18
288.15 K, m1 = 0.0506	354.3	1001.7
288.15 K, m1 = 0.1042	362	1004.3
288.15 K, m1 = 0.2591	361.4	1011.68
288.15 K, m1 = 0.5092	361.4	1023.3
288.15 K, m1 = 0.9969	361.7	1044.05
288.15 K, m1 = 1.998	359.9	1081.81
288.15 K, m1 = 3.177	361.1	1115.96
293.15 K, m1 = 0.0196	377	–
293.15 K, m1 = 0.0506	365.3	–
293.15 K, m1 = 0.1042	371.7	–
293.15 K, m1 = 0.2591	371.2	–
293.15 K, m1 = 0.5092	371	–
293.15 K, m1 = 0.9969	371	–
293.15 K, m1 = 1.998	368.5	–
293.15 K, m1 = 3.177	369.4	–
298.15 K, m1 = 0.0196	385	998.09
298.15 K, m1 = 0.0506	375.1	999.6
298.15 K, m1 = 0.1042	380.2	1002.18
298.15 K, m1 = 0.2591	379.6	1009.48
298.15 K, m1 = 0.5092	379.3	1020.79
298.15 K, m1 = 0.9969	379	1041.23
298.15 K, m1 = 1.998	376.1	1078.43
298.15 K, m1 = 3.177	376.6	1112.13
303.15 K, m1 = 0.0196	392	–
303.15 K, m1 = 0.0506	383.2	–
303.15 K, m1 = 0.1042	387.5	–
303.15 K, m1 = 0.2591	386.8	–
303.15 K, m1 = 0.5092	386.4	–
303.15 K, m1 = 0.9969	385.9	–
303.15 K, m1 = 1.998	382.8	–
303.15 K, m1 = 3.177	383	–
308.15 K, m1 = 0.0196	397	995.08
308.15 K, m1 = 0.0506	389.5	996.56
308.15 K, m1 = 0.1042	393.6	999.1
308.15 K, m1 = 0.2591	393	1006.35
308.15 K, m1 = 0.5092	392.6	1017.44
308.15 K, m1 = 0.9969	392	1037.61
308.15 K, m1 = 1.998	388.8	1074.35
308.15 K, m1 = 3.177	388.8	1107.66
313.15 K, m1 = 0.0196	403	–
313.15 K, m1 = 0.0506	395.7	–
313.15 K, m1 = 0.1042	399.2	–
313.15 K, m1 = 0.2591	398.6	–
313.15 K, m1 = 0.5092	398.2	–
313.15 K, m1 = 0.9969	397.4	–
313.15 K, m1 = 1.998	394.1	–
313.15 K, m1 = 3.177	393.9	–
318.15 K, m1 = 0.0196	408	991.29
318.15 K, m1 = 0.0506	401.1	992.73
318.15 K, m1 = 0.1042	404.3	995.28
318.15 K, m1 = 0.2591	403.7	1002.45
318.15 K, m1 = 0.5092	403.2	1013.36
318.15 K, m1 = 0.9969	402.3	1033.3
318.15 K, m1 = 1.998	398.9	1069.71
318.15 K, m1 = 3.177	398.6	1102.66
323.15 K, m1 = 0.0196	412.3	–
323.15 K, m1 = 0.0506	405.8	–
323.15 K, m1 = 0.1042	408.7	–
323.15 K, m1 = 0.2591	408.1	–
323.15 K, m1 = 0.5092	407.6	–
323.15 K, m1 = 0.9969	406.7	–
323.15 K, m1 = 1.998	403.3	–
323.15 K, m1 = 3.177	402.8	–
328.15 K, m1 = 0.0196	415.7	986.75
328.15 K, m1 = 0.0506	409.7	988.19
328.15 K, m1 = 0.1042	412.7	990.72
328.15 K, m1 = 0.2591	412.2	997.84
328.15 K, m1 = 0.5092	411.6	1008.63
328.15 K, m1 = 0.9969	410.7	1028.38
328.15 K, m1 = 1.998	407.3	1064.46
328.15 K, m1 = 3.177	406.7	1097.15
333.15 K, m1 = 0.0196	419.1	–
333.15 K, m1 = 0.0506	413.4	–
333.15 K, m1 = 0.1042	416.3	–
333.15 K, m1 = 0.2591	415.8	–
333.15 K, m1 = 0.5092	415.3	–
333.15 K, m1 = 0.9969	414.3	–
333.15 K, m1 = 1.998	410.9	–
333.15 K, m1 = 3.177	410.3	–
338.15 K, m1 = 0.0196	422.2	981.58
338.15 K, m1 = 0.0506	416.9	983.05
338.15 K, m1 = 0.1042	419.6	985.54
338.15 K, m1 = 0.2591	419.2	992.64
338.15 K, m1 = 0.5092	418.6	1003.33
338.15 K, m1 = 0.9969	417.6	1022.96
338.15 K, m1 = 1.998	414.3	1058.79
338.15 K, m1 = 3.177	413.6	1091.26
343.15 K, m1 = 0.0196	424.8	–
343.15 K, m1 = 0.0506	420	–
343.15 K, m1 = 0.1042	422.7	–
343.15 K, m1 = 0.2591	422.2	–
343.15 K, m1 = 0.5092	421.6	–
343.15 K, m1 = 0.9969	420.6	–
343.15 K, m1 = 1.998	417.3	–
343.15 K, m1 = 3.177	416.5	–
348.15 K, m1 = 0.0196	427.6	975.89
348.15 K, m1 = 0.0506	422.8	977.36
348.15 K, m1 = 0.1042	425.4	979.79
348.15 K, m1 = 0.2591	424.9	986.84
348.15 K, m1 = 0.5092	424.3	997.49
348.15 K, m1 = 0.9969	423.3	1017.01
348.15 K, m1 = 1.998	420.1	1052.65
348.15 K, m1 = 3.177	419.3	1084.97
353.15 K, m1 = 0.0196	429.6	–
353.15 K, m1 = 0.0506	424.8	–
353.15 K, m1 = 0.1042	427.8	–
353.15 K, m1 = 0.2591	427.3	–
353.15 K, m1 = 0.5092	426.7	–
353.15 K, m1 = 0.9969	425.7	–
353.15 K, m1 = 1.998	422.6	–
353.15 K, m1 = 3.177	421.8	–
358.15 K, m1 = 0.0196	431.8	969.65
358.15 K, m1 = 0.0506	426.7	971.12
358.15 K, m1 = 0.1042	430.1	973.52
358.15 K, m1 = 0.2591	429.5	980.54
358.15 K, m1 = 0.5092	428.9	991.18
358.15 K, m1 = 0.9969	427.9	1010.61
358.15 K, m1 = 1.998	424.9	1046.1
358.15 K, m1 = 3.177	424	1078.29
363.15 K, m1 = 0.0196	433.8	–
363.15 K, m1 = 0.0506	427.7	–
363.15 K, m1 = 0.1042	431.7	–
363.15 K, m1 = 0.2591	431.2	–
363.15 K, m1 = 0.5092	430.7	–
363.15 K, m1 = 0.9969	429.8	–
363.15 K, m1 = 1.998	426.9	–
363.15 K, m1 = 3.177	425.9	–
368.15 K, m1 = 0.0196	–	962.93
368.15 K, m1 = 0.0506	–	964.44
368.15 K, m1 = 0.1042	–	966.8
368.15 K, m1 = 0.2591	–	973.76
368.15 K, m1 = 0.5092	–	984.4
368.15 K, m1 = 0.9969	–	1003.76
368.15 K, m1 = 1.998	–	1039.13
368.15 K, m1 = 3.177	–	1071.22
